Values of other authors in EP3332769A1, “SOLID ORAL PHARMACEUTICAL COMPOSITIONS OF TICAGRELOR” (Sanovel Ilac Sanayi ve Ticaret A.S., priority 2016, dated 2018).
Values after ≈ are worked out from the molar mass of the structure shown.

Details: in water

**Q.** For `CCCSc1nc(N[C@@H]2C[C@H]2c2ccc(F)c(F)c2)c2nnn([C@@H]3C[C@H](OCCO)[C@@H](O)[C@H]3O)c2n1` [Ticagrelor, (1 S,2S,3R,5S)-3-[7-[(1 R,2S)-2-(3,4-Difluorophenyl)cyclopropylamino]-5-(propylthio)-3H-[1,2,3]triazolo[4,5-d]pyrimidin-3-yl] -5-(2-hydroxyethoxy) cyclopentane-1,2-diol], which aqueous solubility is on record?
**A.** The aqueous solubility was 10 µg/mL (≈ 19.1 µM).
